Publication PMC13499021, “Cellular Assays for Dynamic Quantification of Deubiquitinase Activity and Inhibition” (Journal of molecular biology, 2023)

Tests used:
Format in all cases: cell-based, SARS-CoV-2
SARS2 PL^pro Y268H = test system: SARS2 PL^pro Y268H
SARS2 PL^pro N267K = test system: SARS2 PL^pro N267K
SARS2 PL^pro L162F = test system: SARS2 PL^pro L162F
SARS2 PL^pro Q269R = test system: SARS2 PL^pro Q269R
SARS2 PL^pro P248L = test system: SARS2 PL^pro P248L
SARS2 PL^pro Y268C = test system: SARS2 PL^pro Y268C
SARS2 PL^pro Y264H = test system: SARS2 PL^pro Y264H
SARS2 PL^pro N267D = test system: SARS2 PL^pro N267D

## GRL0617
SARS2 PL^pro Y268H
  decrease in potency: > 10 fold
SARS2 PL^pro N267K
  impact of mutation on GRL0617 potency: little impact
SARS2 PL^pro L162F
  increase in IC50: ~8 fold
SARS2 PL^pro Q269R
  impact of mutation on GRL0617 potency: little impact
SARS2 PL^pro P248L
  decrease in potency: > 10 fold
  resistance phenotype in dose response curves: near-complete resistance
SARS2 PL^pro Y268C
  decrease in potency: > 10 fold
  resistance phenotype in dose response curves: near-complete resistance
SARS2 PL^pro Y264H
  decrease in potency: > 10 fold
  resistance phenotype in dose response curves: near-complete resistance
SARS2 PL^pro N267D
  impact of mutation on GRL0617 potency: little impact
